Results: PMC7734574 (International Journal of Molecular Sciences, 2020)
Read-outs that look alike come from different tables or passages of the source.

Columns and labels:
[1] = axitinib, DMSO (NMR), cited from earlier work
[2] = biological target: T1, VEGFR-2 (purified kinase domain, KDR active) (Homo sapiens, UniProt P35968); conditions: cited from earlier work
[3] = photoswitching followed by UV/VIS spectroscopy; format: physicochemical; conditions: for photoconversion on back switching to the E-isomer: DMSO
Excerpt: (§1) In order to determine the isomer ratios of the PSS as well as to identify the optimal excitation wavelengths for the E/Z isomerizations, compounds 3–7 were characterized by UV/VIS and NMR spectroscopy. Due to their poor water solubility along with the low molar absorption coefficients of diazocines, all compounds were initially analyzed in DMSO.
By irradiation at 530 nm, the diazocine-based compounds 5–7 can be switched back quantitatively to the Z-isomer. Since the associated spectra completely overlap with the spectra of the pure Z-isomers, they are not shown for reasons of clarity. To check the reversibility of the photoswitching, long-term stability measurements with 20 switching cycles were performed. For this purpose, the compounds were irradiated alternately for 20 s at 405 nm and 530 nm, respectively. After each irradiation, an UV/VIS spectrum was recorded.
(§2) UV/VIS spectra were measured using a Varian Cary® 50 Scan UV/VIS photometer from Agilent (Waldbronn, Germany) equipped with a Varian Cary PCB 150 thermostat either at 25 °C or 37 °C. […] The fitting of thermal relaxations was done with GraphPad Prism® (v.7.03, GraphPad Software, San Diego, CA, USA).

[4] = biological target: T1, VEGFR-2 (purified kinase domain, KDR active); test: luminescence-based ADP-Glo kinase assay under controlled light conditions; format: biochemical; set-up: VEGFR-2 (purified kinase domain, KDR active, Promega); purchased Promega
[5] = thermal back isomerization (half-life of the metastable form) by UV/VIS spectroscopy; format: physicochemical; conditions: 37 °C, DMSO (UV/VIS)
Procedure: For the meta-linked derivative 3 (Figure 6a), a maximum shift of the PSS toward the Z-isomer can be achieved by irradiation at 365 nm. By NMR spectroscopy, a Z-isomer content of 83% was determined in the PSS. […] Back switching to the E-isomers E-3 and E-4 is possible by irradiation at 435 nm (3) or 470 nm (4), respectively. Furthermore, half-lives of the azobenzene derivatives were determined by UV/VIS spectroscopy at 37 °C in DMSO.
as §2

[6] = isomer ratio of the photostationary state by NMR spectroscopy; format: physicochemical
Excerpt: as §1

[7] = tested on: lysates of human umbilical vein endothelial cells (HUVECs); test: kinome activity profiling (PamGene) of treated cell lysate; format: biochemical; conditions: 20 µM, irradiated at 405 nm, HUVEC lysate, 10% DMSO
[8] = E-isomer, in the dark (unirradiated), 1% DMSO
[9] = DMSO, NMR, irradiation at 365 nm
[10] = both irradiated and unirradiated compounds
[11] = DMSO (NMR), irradiation at 405 nm
[12] = PSS after irradiation at 405 nm, 10% DMSO
[13] = Z-isomer, in the dark (unirradiated), 10% DMSO
[14] = after irradiation at 405 nm, 10% DMSO

T1 sequence (P35968 834-1162 limits assumed): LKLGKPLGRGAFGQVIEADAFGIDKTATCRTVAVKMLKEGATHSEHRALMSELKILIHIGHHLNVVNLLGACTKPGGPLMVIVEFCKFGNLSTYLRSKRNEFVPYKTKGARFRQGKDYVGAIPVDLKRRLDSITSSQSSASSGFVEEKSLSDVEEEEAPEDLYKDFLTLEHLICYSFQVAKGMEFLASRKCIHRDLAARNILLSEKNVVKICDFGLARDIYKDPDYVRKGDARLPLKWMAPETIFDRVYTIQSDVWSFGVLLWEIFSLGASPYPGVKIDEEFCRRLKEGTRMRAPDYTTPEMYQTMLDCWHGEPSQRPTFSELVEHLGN

CNC(=O)c1ccccc1Sc1ccc2c(/C=C/c3ccccn3)n[nH]c2c1 [Compound 1, Axitinib]
PSS (E/Z%) ([1]; 365 nm (E → Z)): 51/49
PSS (E/Z%) ([1]; 385 nm (Z → E)): 88/12
difference in biological activities of Z-axitinib and E-axitinib [2]: 43 fold

CNC(=O)c1ccccc1Sc1ccc2c(/N=N/c3ccccn3)n[nH]c2c1 [Compound 2, (E)‐N‐methyl‐2‐((3‐(pyridin‐2‐yldiazenyl)‐1H‐indazol‐6‐yl)thio)benzamide]
spectral change upon irradiation ([3]; 20 µM in DMSO and water with 10 % DMSO, 365, 385, 405, 420 and 470 nm): No spectral change
IC50 [4, 8]: 415 nM

CNC(=O)c1ccccc1Sc1ccc2c(-c3cccc(/N=N/c4ccccc4)c3)n[nH]c2c1 [Compound 3, (E)‐N‐methyl‐2‐((3‐(3‐(phenyldiazenyl)phenyl)‐1H‐indazol‐6‐yl)thio) benzamide]
k of exponential fit of thermal back isomerization [5]: 0.01608
photoconversion on back switching to the E-isomer ([3]; irradiation at 435 nm): almost quantitative
PSS (E/Z%) [6, 9]: 17/83
Z-isomer content in the PSS [6, 9]: 83%
residual activity (plateau) ([4]; E-isomer in the dark): 33%
IC50 [4, 8]: 1080 nM
IC50 ([4]; PSS after irradiation at 365 nm, 1% DMSO): 1290 nM
residual activity (plateau) ([4]; after irradiation at 365 nm): 5%
IC50 [4, 10]: ~1000 nM

CNC(=O)c1ccccc1Sc1ccc2c(-c3ccc(/N=N/c4ccccc4)cc3)n[nH]c2c1 [Compound 4, (E)‐N‐methyl‐2‐((3‐(4‐(phenyldiazenyl)phenyl)‐1H‐indazol‐6‐yl)thio) benzamide]
k of exponential fit of thermal back isomerization [5]: 0.121
photoconversion on back switching to the E-isomer ([3]; irradiation at 470 nm): almost quantitative
PSS (E/Z%) ([6]; DMSO (NMR), irradiation at 385 nm): 20/80
residual activity (plateau) ([4]; E-isomer in the dark): 43%
IC50 [4, 8]: 1020 nM
IC50 ([4]; PSS after irradiation at 385 nm, 1% DMSO): 1440 nM
residual activity (plateau) ([4]; after irradiation at 385 nm): 13%
IC50 [4, 10]: ~1000 nM

CNC(=O)c1ccccc1Sc1ccc2c(-c3ccc4c(c3)/N=N\c3ccccc3SC4)n[nH]c2c1 [Compound 5, (Z)‐2‐((3‐(12H‐dibenzo[b,f][1,4,5]thiadiazocin‐3‐yl)‐1H‐indazol‐6‐yl)thio)‐N‐methylbenzamide]
k of exponential fit of thermal back isomerization [5]: 0.09514
kinase activities (phosphorylation degree of substrate peptides) compared to DMSO [7]: moderate decrease of kinase activities
PSS (E/Z%) [6, 11]: 47/53
IC50 [4, 12]: 214 nM
IC50 [4, 13]: > 10000 nM
residual activity (plateau) [4, 14]: 6%

CNC(=O)c1ccccc1Sc1ccc2c(-c3ccc4c(c3)CSc3ccccc3/N=N\4)n[nH]c2c1 [Compound 6, (Z)‐2‐((3‐(12H‐dibenzo[b,f][1,4,5]thiadiazocin‐2‐yl)‐1H‐indazol‐6‐yl)thio)‐N‐methylbenzamide]
k of exponential fit of thermal back isomerization [5]: 0.1853
PSS (E/Z%) [6, 11]: 25/75
E-isomer content in the PSS ([6]; DMSO, irradiation at 405 nm): 25%
IC50 [4, 12]: 251 nM
IC50 [4, 13]: > 10000 nM
residual activity (plateau) [4, 14]: 10%

CNC(=O)c1ccccc1Sc1ccc2c(-c3ccc4c(c3)/N=N\c3ccccc3CC4)n[nH]c2c1 [Compound 7, (Z)‐2‐((3‐(11,12‐dihydrodibenzo[c,g][1,2]diazocin‐3‐yl)‐1H‐indazol‐6‐yl)thio)‐N‐methylbenzamide]
k of exponential fit of thermal back isomerization [5]: 0.4711
PSS (E/Z%) [6, 11]: 60/40
E-isomer content in the PSS ([6]; DMSO, irradiation at 405 nm): 60%
IC50 [4, 12]: 493 nM
residual activity ([4]; Z-isomer in the dark, 10% DMSO): ≥ 37%
